# Laboratory results from the supplement of paper PMC11208160.
# Experiment: recombinant barcode read abundance after kanamycin selection (control-corrected) (log10(CPM+1)); higher = more efficient recombination; sequences stand for … in AGTGCAGAGAAAATCGGCCAGTTTTCTCTGCCTGCAGTCCGCATGCCGT…AGATTTATGCAGCGGACTGCCTTTCTCCCAAAGTGATAAACCGGACAGTATCATGGACCGGTTTTCCCGGTAATCCGTATTTGCAAGGTTGGTTTCACT; site = the 11-nt target
# How it was run: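 Reported as log10(CPM+1), each value stands for recombination efficiency. That efficiency is the averaged, control-corrected counts per million of barcodes found at recombinant junctions. Cells from a pooled E. coli library pairing targets with IS621 bridge RNA target-binding loops were plated twice on chloramphenicol/ampicillin LB agar (control) and twice on chloramphenicol/ampicillin/kanamycin with 0.1 mM IPTG.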
# 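Note: IS621 recombinase and bridge RNA in Escherichia coli cells.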
row,Sequence,recombinant barcode read abundance (log10)
1,CAAAGTCCTTGGGTTCTAACCTGTTGCCT (site CAAAGTCCTAA),0.013
2,CAAAGTCCTTGGGTTCTAACCTGTTGCCT (site CAAAGTCCTAC),0.0449
3,CAAAGTCCTTGGGTTCTAACCTGTTGCCT (site CAAAGTCCTAG),1.12
4,CAAAGTCCTTGGGTTCTAACCTGTTGCCT (site CAAAGTCCTAT),0.0828
5,CAAAGTCCTTGGGTTCTAACCTGTTGCTT (site CAAAGTCCTAA),0.437
6,CAAAGTCCTTGGGTTCTAACCTGTTGCTT (site CAAAGTCCTAC),0.174
7,CAAAGTCCTTGGGTTCTAACCTGTTGCTT (site CAAAGTCCTAG),0.152
8,CAAAGTCCTTGGGTTCTAACCTGTTGCTT (site CAAAGTCCTAT),0.429
9,CAACCGGCTTGGGTTCTAACCTGTTGCCT (site CAACCGACTAG),0.0354
10,CAACCGGCTTGGGTTCTAACCTGTTGCCT (site CAACCGCCTAG),0.255
11,CAACCGGCTTGGGTTCTAACCTGTTGCCT (site CAACCGGCTAG),0.986
12,CAACCGGCTTGGGTTCTAACCTGTTGCCT (site CAACCGTCTAG),0.111
13,CAAGGGCCTTGGGTTCTAACCTGTTGCCT (site CAAAGGCCTAG),0.423
14,CAAGGGCCTTGGGTTCTAACCTGTTGCCT (site CAACGGCCTAG),0.0504
15,CAAGGGCCTTGGGTTCTAACCTGTTGCCT (site CAAGGGCCTAG),0.701
16,CAAGGGCCTTGGGTTCTAACCTGTTGCCT (site CAATGGCCTAG),0.375
17,CAAGTAGCTTGGGTTCTAACCTGTTGCCT (site CAAGTAGCTAG),0.591
18,CAAGTAGCTTGGGTTCTAACCTGTTGCCT (site CAAGTCGCTAG),0.123
19,CAAGTAGCTTGGGTTCTAACCTGTTGCCT (site CAAGTGGCTAG),0.183
20,CAAGTAGCTTGGGTTCTAACCTGTTGCCT (site CAAGTTGCTAG),0.0368
21,CAATAGACTTGGGTTCTAACCTGTTGCCT (site CAATAGACTAG),1.19
22,CAATAGACTTGGGTTCTAACCTGTTGCCT (site TGCACCTCTTA),0.0564

row,Sequence,recombinant barcode read abundance (log10)
1,CAATCACCTTGGGTTCTAACCTGTTGCTT (site CAAACACCTAA),0.109
2,CAATCACCTTGGGTTCTAACCTGTTGCTT (site CAACCACCTAA),0.461
3,CAATCACCTTGGGTTCTAACCTGTTGCTT (site CAAGCACCTAA),0.027
4,CAATCACCTTGGGTTCTAACCTGTTGCTT (site CAATCACCTAA),0.794
5,CAATCCTCTTGGGTTCTAACCTGTTGCTT (site CAATCCTCTAA),0.664
6,CAATCCTCTTGGGTTCTAACCTGTTGCTT (site CCATCCTCTAA),0
7,CAATCGTCTTGGGTTCTAACCTGTTGCGG (site CAATCGTCTCC),1.68
8,CAATCGTCTTGGGTTCTAACCTGTTGCGG (site CAGCCGTCTCC),0.166
9,CAATGGTCTTGGGTTCTAACCTGTTGCAT (site CAATGGTCTAA),0.409
10,CAATGGTCTTGGGTTCTAACCTGTTGCAT (site CAATGGTCTAC),0.476
11,CAATGGTCTTGGGTTCTAACCTGTTGCAT (site CAATGGTCTAG),0.54
12,CAATGGTCTTGGGTTCTAACCTGTTGCAT (site CAATGGTCTAT),2.71
13,CAATTGTCTTGGGTTCTAACCTGTTGCGT (site CAATTGTCTAC),3.47
14,CAATTGTCTTGGGTTCTAACCTGTTGCGT (site TAATTGTCTAC),0.151
15,CACAAGTCTTGGGTTCTAACCTGTTGCTT (site CACAAGTCTAA),0.474
16,CACAAGTCTTGGGTTCTAACCTGTTGCTT (site CGCACGTCTAA),0.0654
17,CACAATACTTGGGTTCTAACCTGTTGCCT (site CACAATACTAG),1.03
18,CACAATACTTGGGTTCTAACCTGTTGCCT (site GCATGACCTCT),0.00751
19,CACACAGCTTGGGTTCTAACCTGTTGCCT (site CACAAAGCTAG),0.082
20,CACACAGCTTGGGTTCTAACCTGTTGCCT (site CACACAGCTAG),0.559
21,CACAGGGCTTGGGTTCTAACCTGTTGCGG (site CACAGGGCTCC),2.39
22,CACAGGGCTTGGGTTCTAACCTGTTGCGG (site CACATGGCTCG),0.344

row,Sequence,recombinant barcode read abundance (log10)
1,CACATCTCTTGGGTTCTAACCTGTTGCCT (site CACATATCTAT),0.0495
2,CACATCTCTTGGGTTCTAACCTGTTGCCT (site CACATCTCTAG),1.38
3,CACATTCCTTGGGTTCTAACCTGTTGCCT (site AACATTCCTAG),0.158
4,CACATTCCTTGGGTTCTAACCTGTTGCCT (site CACATTCCTAG),0.17
5,CACATTCCTTGGGTTCTAACCTGTTGCCT (site GACATTCCTAG),0.141
6,CACATTCCTTGGGTTCTAACCTGTTGCCT (site TACATTCCTAG),0.06
7,CACCACTCTTGGGTTCTAACCTGTTGCCT (site AACCACTCTAG),0.545
8,CACCACTCTTGGGTTCTAACCTGTTGCCT (site CACCACTCTAG),1.56
9,CACCACTCTTGGGTTCTAACCTGTTGCCT (site GACCACTCTAG),0.108
10,CACCACTCTTGGGTTCTAACCTGTTGCCT (site TACCACTCTAG),0.195
11,CACCGTTCTTGGGTTCTAACCTGTTGCTT (site CACCGTTCTAA),0.552
12,CACCGTTCTTGGGTTCTAACCTGTTGCTT (site CATCGCTCTAA),0.0503
13,CACGAGACTTGGGTTCTAACCTGTTGCCT (site CACGAGACTAG),2.05
14,CACGAGACTTGGGTTCTAACCTGTTGCCT (site CACGAGCCTAG),0.0856
15,CACGAGACTTGGGTTCTAACCTGTTGCCT (site CACGAGGCTAG),1.02
16,CACGAGACTTGGGTTCTAACCTGTTGCCT (site CACGAGTCTAG),0.424
17,CACGAGTCTTGGGTTCTAACCTGTTGCCT (site CACGAGACTAG),0.0562
18,CACGAGTCTTGGGTTCTAACCTGTTGCCT (site CACGAGCCTAG),0.24
19,CACGAGTCTTGGGTTCTAACCTGTTGCCT (site CACGAGGCTAG),0.109
20,CACGAGTCTTGGGTTCTAACCTGTTGCCT (site CACGAGTCTAG),1.57
21,CACGCCTCTTGGGTTCTAACCTGTTGCCT (site AACGCCTCTAG),0.116
22,CACGCCTCTTGGGTTCTAACCTGTTGCCT (site CACGCCTCTAG),1.88

row,Sequence,recombinant barcode read abundance (log10)
1,CACGCCTCTTGGGTTCTAACCTGTTGCCT (site GACGCCTCTAG),0.385
2,CACGCCTCTTGGGTTCTAACCTGTTGCCT (site TACGCCTCTAG),0.0712
3,CACGCGCCTTGGGTTCTAACCTGTTGCGG (site CACGCGCCTCC),1.84
4,CACGCGCCTTGGGTTCTAACCTGTTGCGG (site GCTCATACTAG),0.00629
5,CACGGGACTTGGGTTCTAACCTGTTGCAG (site CACGGGACTCT),2.58
6,CACGGGACTTGGGTTCTAACCTGTTGCAG (site TCGAACGCTAA),0.111
7,CACGGGGCTTGGGTTCTAACCTGTTGCCT (site ATGCTACCTCC),0.0666
8,CACGGGGCTTGGGTTCTAACCTGTTGCCT (site CACGGGGCTAG),0.697
9,CACGGTCCTTGGGTTCTAACCTGTTGCCA (site ATGCTATCTCT),0.0164
10,CACGGTCCTTGGGTTCTAACCTGTTGCCA (site CACGGTCCTTG),1.31
11,CACGGTCCTTGGGTTCTAACCTGTTGCGG (site AACGCTCCTCC),0.0287
12,CACGGTCCTTGGGTTCTAACCTGTTGCGG (site CACGGTCCTCC),3.16
13,CACGTTACTTGGGTTCTAACCTGTTGCCT (site CACGGAACTAG),0.0559
14,CACGTTACTTGGGTTCTAACCTGTTGCCT (site CACGTTACTAG),0.628
15,CACTAGCCTTGGGTTCTAACCTGTTGCGG (site CACTAGCCTCC),2.41
16,CACTAGCCTTGGGTTCTAACCTGTTGCGG (site CACTATCCTCC),0.133
17,CACTGCTCTTGGGTTCTAACCTGTTGCCT (site CACTGATCTAG),0.2
18,CACTGCTCTTGGGTTCTAACCTGTTGCCT (site CACTGCTCTAG),1.58
19,CACTGCTCTTGGGTTCTAACCTGTTGCCT (site CACTGGTCTAG),0.151
20,CACTGCTCTTGGGTTCTAACCTGTTGCCT (site CACTGTTCTAG),0.173
